Patent US5091305A, “Bile acid sulfate sulfatase, process for its preparation and method for assaying bile acid” (Marukin Shoyu Co., Ltd., priority 1988, dated 1992)
Like-named read-outs stand apart in the source and are kept apart here.

Assays:
[1] = tested on: bile acid sulfate sulfatase; experiment: Activity of the present Enzyme on substrates (coupled β-hydroxysteroid dehydrogenase/NADH assay, absorbance at 340 nm); format: biochemical, Pseudomonas testosteroni; details: for Relative activity (substrate specificity): lithocholic acid 3α-sulfate = 100
Procedure: (§1) The physicochemical properties of the present Enzyme are further described below. The activity of the present Enzyme is measured as follows. That is, into a quartz cell are placed 0.1 ml of 2.5 mM aqueous solution of lithocholic acid 3α-sulfate (Sigma), 0.2 ml of 15 mM aqueous solution of β-NAD (Oriental Yeast), 1.0 ml of 0.1M tris-hydrochloric acid buffer solution (pH 8.0) and 1.55 ml of distilled water, and after equilibrating at 30° C., 0.05 ml of β-hydroxysteroid dehydrogenase (Sigma) solution (10 U/ml) and 0.1 ml of a solution of the present Enzyme are sequentially added thereto and the reaction is effected at 30° C., and the increase of the absorbance at 340 nm in the initial stage of the reaction is determined. Under these conditions, the enzyme activity producing 1 μmol of NADH per minute is defined as 1 unit.
(b) Substrate specificity: Acting on 3α-sulfates of nonconjugated bile acids, and 3α-sulfates each of glycine-conjugated and taurine-conjugated bile acids.

[2] = tested on: bile acid sulfate sulfatase; experiment: Inhibition and activation of the present Enzyme by additives; format: biochemical, Pseudomonas testosteroni
Procedure: as §1

[3] = additive 2 mM, no additive = 100
[4] = additive 1 mM, no additive = 100
[5] = effect of the substance on the present Enzyme

Compound | Relative activity (substrate specificity) [1] [%] | Relative Activity [2, 3] [%] | other results
4-Nitrocatechol sulfate | 0 |  | 
C[C@H](CCC(=O)O)[C@H]1CC[C@H]2[C@@H]3CC=C4C[C@@H](OS(=O)(=O)O)CC[C@]4(C)[C@H]3CC[C@]12C [3β-Hydroxy-5-cholenic acid 3-sulfate] | 0 |  | 
[Cl][Cd][Cl] [Cadmium chloride] |  | 98 | 
C[C@H](CCC(=O)O)[C@H]1CC[C@H]2[C@@H]3[C@H](O)C[C@@H]4C[C@H](OS(=O)(=O)O)CC[C@]4(C)[C@H]3C[C@H](O)[C@]12C [Cholic acid 3α-sulfate] | 238 |  | 
[Cl][Co][Cl] [Cobalt chloride] |  | 92 | 
O=S(=O)([O-])[O-].[Cu+2] [Copper sulfate] |  | 94 | 
O=C(O)CN(CCN(CC(=O)O)CC(=O)O)CC(=O)O [EDTA] |  |  | Relative Activity [2, 4]: 38%; Relative Activity ([2]; additive 5 mM, no additive = 100): 25%; Inhibition and activation (in words) [2, 5]: inhibited
C[C@H](CCC(=O)NCC(=O)O)[C@H]1CC[C@H]2[C@@H]3CC[C@@H]4C[C@H](OS(=O)(=O)O)CC[C@]4(C)[C@H]3CC[C@]12C [Glycolithocholic acid 3α-sulfate] | 11 |  | 
C[C@H](CCC(=O)O)[C@H]1CC[C@H]2[C@@H]3CC[C@@H]4C[C@H](OS(=O)(=O)O)CC[C@]4(C)[C@H]3CC[C@]12C [Lithocholic acid 3α-sulfate] | 100 |  | Km ([1]; Km of the present Enzyme to the substrate): 6 µM
O=S(=O)([O-])[O-].[Mg+2] [Magnesium sulfate] |  | 101 | 
[Cl][Mn][Cl] [Manganese chloride] |  | 111 | Inhibition and activation (in words) [2, 5]: Activated
[Cl][Hg][Cl] [Mercuric chloride] |  | 71 | Relative Activity [2, 4]: 90%
O=C(O)CI [Monoiodoacetic acid] |  |  | Inhibition and activation (in words) [2]: Hardly inhibited; Relative Activity ([2]; 2000 µM): 98%
[N-]=[N+]=[N-] [Sodium azide] |  |  | Relative Activity ([2]; additive 10 mM, no additive = 100): 100%
[F-].[Na+] [Sodium fluoride] |  | 98 | 
C[C@H](CCC(=O)NCCS(=O)(=O)O)[C@H]1CC[C@H]2[C@@H]3CC[C@@H]4C[C@H](OS(=O)(=O)O)CC[C@]4(C)[C@H]3CC[C@]12C [Taurolithocholic acid 3α-sulfate] | 2 |  | 
O=S(=O)([O-])[O-].[Zn+2] [Zinc sulfate] |  | 95 | 
c1cnc2c(c1)ccc1cccnc12 [o-Phenanthroline] |  |  | Relative Activity [2, 4]: 37%; Inhibition and activation (in words) [2, 5]: inhibited
O=C(O)c1cc[c]([Hg][Cl])cc1 [p-Chloromercuribenzoate] |  |  | Relative Activity ([2]; additive 0.2 mM, no additive = 100): 98%; Inhibition and activation (in words) [2, 5]: Hardly inhibited
c1ccc(-c2ccccn2)nc1 [α,α'-Dipyridyl] |  |  | Relative Activity [2, 4]: 97%
